The values that follow come from patent US20100041892A1, “Therapeutic agent for diabetes” (priority 2005, published 2010).

The subject of one series is KKAy mice. The series is described as follows: Blood glucose and blood lipid (triglyceride) lowering action in mice. The series is classed as in vivo. The conditions noted are these: Mus musculus, 4TO7, po, 4 to 7 days; for response vs control in vivo at 0.03 %: 0.03% in powder diet; for response vs control in vivo at 0.005 %: 0.005% in powder diet; for response vs control in vivo at 0.01 %: 0.01% in powder diet. An excerpt: The test compound was mixed with a powder diet (CE-2, CLEA JAPAN, INC.) at a proportion of 0.01% (0.03% for the compounds of Examples 1, 2, 12, 81, 94, 96, 129 and 143, and 0.005% for the compounds of Examples 28, 30 and 37) and freely given to KKAy mice (9 to 14-week-old, 5 mice per group) which are obesity non-insulin-dependent diabetes (type-2 diabetes) models, for 4 to 7 days. During this period, water was freely given. The blood was drawn from the orbital venous plexus. Glucose and triglyceride in the plasma separated from the blood were quantitated using L Type Wako Glu2 (Wako Pure Chemical Industries, Ltd.) and L Type Wako TG·H (Wako Pure Chemical Industries, Ltd.), respectively, according to an enzyme method.

In another series the target is T1, PPARγ-RXRα heterodimer (Homo sapiens, UniProt P37231).
T1 construct: expressed in transfected cells; host or cells: CHO-K1 (PPARγ:RXRα:4ERPP/CHO-K1)
T1 sequence (P37231 1-477 isoform P37231-2): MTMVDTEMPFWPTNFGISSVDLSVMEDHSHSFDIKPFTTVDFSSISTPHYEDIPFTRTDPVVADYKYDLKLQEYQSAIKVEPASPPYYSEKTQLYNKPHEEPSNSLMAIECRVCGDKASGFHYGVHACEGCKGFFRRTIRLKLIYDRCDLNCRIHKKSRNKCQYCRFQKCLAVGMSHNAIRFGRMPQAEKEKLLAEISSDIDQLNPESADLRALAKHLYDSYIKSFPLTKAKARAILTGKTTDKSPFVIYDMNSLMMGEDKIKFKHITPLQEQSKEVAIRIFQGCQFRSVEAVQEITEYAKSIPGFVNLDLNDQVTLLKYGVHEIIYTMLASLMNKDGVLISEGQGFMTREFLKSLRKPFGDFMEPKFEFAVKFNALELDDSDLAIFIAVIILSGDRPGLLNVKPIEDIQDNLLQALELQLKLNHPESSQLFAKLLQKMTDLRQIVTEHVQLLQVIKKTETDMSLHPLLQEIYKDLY
T1 sequence (P19793 1-462 partner): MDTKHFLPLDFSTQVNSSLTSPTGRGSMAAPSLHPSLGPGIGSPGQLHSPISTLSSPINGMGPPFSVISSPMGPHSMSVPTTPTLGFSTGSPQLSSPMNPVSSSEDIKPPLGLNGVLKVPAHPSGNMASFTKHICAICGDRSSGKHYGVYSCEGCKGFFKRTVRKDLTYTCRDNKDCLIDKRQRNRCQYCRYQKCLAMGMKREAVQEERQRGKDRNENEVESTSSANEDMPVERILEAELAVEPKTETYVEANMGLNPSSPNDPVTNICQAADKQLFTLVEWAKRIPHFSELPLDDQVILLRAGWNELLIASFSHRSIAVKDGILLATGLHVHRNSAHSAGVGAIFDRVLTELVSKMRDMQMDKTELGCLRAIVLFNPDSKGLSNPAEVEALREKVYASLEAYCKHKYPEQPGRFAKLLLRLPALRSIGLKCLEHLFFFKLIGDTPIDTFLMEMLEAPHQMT
The series can be described thus: PPARγ-RXRα heterodimer ligand activity (luciferase reporter, PPARγ:RXRα:4ERPP/CHO-K1 cells). The series is classed as cell-based. The conditions noted are these: concentration showing 50% of the maximum luciferase induction rate; CHO-K1 reporter cells, one day incubation. As for the experimental part:
The PPARγ:RXRα:4ERPP/CHO-K1 cells described in WO03/099793 were cultured in a Ham F12 medium [manufactured by Life Technologies, Inc., US] containing 10% calf fetal serum [manufactured by Life Technologies, Inc., US], sown in a 96-well white plate (manufactured by Corning Coster Corporation, US] at 1×10^4 cells/well, and incubated overnight in a carbon dioxide gas incubator at 37° C.
Then, the medium was removed from the 96 well white plate, 45 μl of Ham F12-medium containing 0.1% fatty acid-free bovine serum albumin (BSA) and a test compound (5 μl) were added, and the cells were incubated for one day in a carbon dioxide gas incubator at 37° C. The medium was removed, 20 μl of PicaGene 7.5 (manufactured by Wako Pure Chemical Industries, Ltd.) 2-fold diluted with HBSS (HANKS' BALANCED SALT SOLUTION) [manufactured by BIO WHITTAKER, US] was added. After stirring, the luciferase activity was determined using the 1420 ARVO Multilabel Counter [manufactured by PerkinElmer, US].
The induction rate was calculated from the luciferase activity of each test compound based on the luciferase activity of the test compound non-administration group as 1. The test compound concentration and the induction rate were analyzed by PRISM [manufactured by GraphPad Software, Inc., US] to calculate EC50 value (compound concentration showing 50% of the maximum value of induction rate) of the test compound.

The mark [1] stands for this setting: plasma glucose relative to non-administration group = 100%, read-out: hypoglycemic action (%).
Where [2] appears, read: plasma triglyceride relative to non-administration group = 100%, read-out: hypolipidemic action (%).

Usually EC50 stands for the concentration needed to bring the measured effect to its halfway point. Low readings indicate greater potency, high ones weaker potency. One may read the melting point as the temperature, or range, at which the solid turns liquid.

Where two headings read alike, the source gives them in different places.

Regarding `CCCCCS(=O)(=O)NC(=O)CCc1ccc(OCCOC)cc1Oc1ncc(C(F)(F)F)cc1Cl` [Example 1, 3-[2-{[3-chloro-5-(trifluoromethyl)pyridin-2-yl]oxy}-4-(2-methoxyethoxy)phenyl]-N-(pentylsulfonyl)propanamide], the response vs control in vivo at 0.03 % with KKAy mice (setting [1]) is 47%; in the series on KKAy mice (setting [2]), 53%. The molecule further came in with an EC50 on PPARγ-RXRα heterodimer of 1.5 nM.
On the same counts, the results for `CCCCCS(=O)(=O)NC(=O)CCc1ccc(OC(C)C)cc1Oc1ncc(C(F)(F)F)cc1Cl` [Example 2, 3-(2-{[3-chloro-5-(trifluoromethyl)pyridin-2-yl]oxy}-4-isopropoxyphenyl)-N-(pentylsulfonyl)propanamide] are 50%, 41% and 2.6 nM.
On the same counts, the results for `CCCCCS(=O)(=O)NC(=O)/C=C/c1ccc(OCCOC)cc1Oc1ncc(C(F)(F)F)cc1Cl` [Example 12, (2E)-3-[2-{[3-chloro-5-(trifluoromethyl)pyridin-2-yl]oxy}-4-(2-methoxyethoxy)phenyl]-N-(pentylsulfonyl)acrylamide] are 46%, 43% and 15 nM.
Take `CCCCCS(=O)(=O)NC(=O)OCCCc1ccc(OCCOC)cc1Oc1ncc(C(F)(F)F)cc1Cl` [Example 28, 3-[2-{[3-chloro-5-(trifluoromethyl)pyridin-2-yl]oxy}-4-(2-methoxyethoxy)phenyl]propyl (pentylsulfonyl)carbamate]: the response vs control in vivo at 0.005 % with KKAy mice (setting [1]) was 52%; in the series on KKAy mice (setting [2]) it was 32%. On PPARγ-RXRα heterodimer, this molecule yielded an EC50 of 4.5 nM.
The matching figures for `COCCOc1ccc(CCCOC(=O)NS(=O)(=O)c2ccc(C)cc2)c(Oc2ncc(C(F)(F)F)cc2Cl)c1` [Example 30, 3-[2-{[3-chloro-5-(trifluoromethyl)pyridin-2-yl]oxy}-4-(2-methoxyethoxy)phenyl]propyl [(4-methylphenyl)sulfonyl]carbamate monohydrate]: 47%, 57% and 3.8 nM.
The matching figures for `COCCOc1ccc(/C=C/COC(=O)NS(=O)(=O)c2ccc(Cl)cc2)c(Oc2ncc(C(F)(F)F)cc2Cl)c1` [Example 37, (2E)-3-[2-{[3-chloro-5-(trifluoromethyl)pyridin-2-yl]oxy}-4-(2-methoxyethoxy)phenyl]-2-propen-1-yl [(4-chlorophenyl)sulfonyl]carbamate dihydrate]: 68%, 70% and 21 nM.
For the molecule `CCCCCS(=O)(=O)NC(=O)OCc1ccc(OCCOC)cc1Oc1ncc(C(F)(F)F)cc1Cl` [Example 58, 2-{[3-chloro-5-(trifluoromethyl)pyridin-2-yl]oxy}-4-(2-methoxyethoxy)benzyl (pentylsulfonyl)carbamate], the response vs control in vivo at 0.01 % in the series on KKAy mice (setting [1]) was determined as 64%; with KKAy mice (setting [2]), 73%. On PPARγ-RXRα heterodimer, this molecule had a 50% effective concentration (EC50) of 10 nM.
Turning to `CCCCCS(=O)(=O)NC(=O)CCc1cc(OC(C)C)nn1Cc1ccc(Cl)cc1Cl` [Example 81, 3-[1-(2,4-dichlorobenzyl)-3-isopropoxy-1H-pyrazol-5-yl]-N-(pentylsulfonyl)propanamide], the response vs control in vivo at 0.03 % in the series with KKAy mice (setting [1]) amounted to 44%; in the series with KKAy mice (setting [2]), 60%. This molecule also returned an EC50 at PPARγ-RXRα heterodimer of 16 nM.
On the same counts, the results for `CCCCCS(=O)(=O)NC(=O)/C=C/c1cc(OC(C)C)nn1Cc1ccc(Cl)cc1Cl` [Example 94, (2E)-3-[1-(2,4-dichlorobenzyl)-3-isopropoxy-1H-pyrazol-5-yl]-N-(pentylsulfonyl)acrylamide] are 48%, 79% and 20 nM.
The matching figures for `CCCCCS(=O)(=O)NC(=O)CCc1cc(C(C)C)nn1Cc1ccc(C(F)(F)F)cc1Cl` [Example 96, 3-(1-[2-chloro-4-(trifluoromethyl)benzyl]-3-isopropyl-1H-pyrazol-5-yl)-N-(pentylsulfonyl)propanamide]: 53%, 57% and 8.4 nM.
As for `CCCCCS(=O)(=O)NC(=O)CCc1ccc(OCCCOCCOC)cc1Oc1ncc(C(F)(F)F)cc1Cl` [Example 255, 3-{2-{[3-chloro-5-(trifluoromethyl)pyridin-2-yl]oxy}-4-[3-(2-methoxyethoxy)propoxy]phenyl}-N-(pentylsulfonyl)propanamide], the melting point fell in the range of 95 to 95.8 °C. Besides, the concentration giving a half-maximal response (EC50) on PPARγ-RXRα heterodimer worked out at 3.9 nM.
The matching figures for `CCCCCS(=O)(=O)NC(=O)/C=C/c1ccc(OCCOCCOC)cc1Oc1ncc(C(F)(F)F)cc1Cl` [Example 256, (2E)-3-{2-{[3-chloro-5-(trifluoromethyl)pyridin-2-yl]oxy}-4-[2-(2-methoxyethoxy)ethoxy]phenyl}-N-(pentylsulfonyl)acrylamide]: 81 to 83 °C and 13 nM.
The matching figures for `CCCCCS(=O)(=O)NC(=O)CCc1ccc(OCCOCCOC)cc1Oc1ncc(C(F)(F)F)cc1Cl` [Example 257, 3-{2-{[3-chloro-5-(trifluoromethyl)pyridin-2-yl]oxy}-4-[2-(2-methoxyethoxy)ethoxy]phenyl}-N-(pentylsulfonyl)propanamide]: 76 to 77.5 °C and 2.1 nM.
As for `CCCCCS(=O)(=O)NC(=O)CCc1ccc(OCCCOC)cc1Oc1ncc(C(F)(F)F)cc1Cl` [Example 258, 3-[2-{[3-chloro-5-(trifluoromethyl)pyridin-2-yl]oxy}-4-(3-methoxypropoxy)phenyl]-N-(pentylsulfonyl)propanamide], the melting point lay in the range of 115 to 115.2 °C. The molecule further returned an EC50 on PPARγ-RXRα heterodimer of 1.1 nM.
On the same counts, the results for `CCCCCS(=O)(=O)NC(=O)/C=C/c1ccc(OCCC2(C)OCCO2)cc1Oc1ncc(C(F)(F)F)cc1Cl` [Example 453, (2E)-3-{2-{[3-chloro-5-(trifluoromethyl)pyridin-2-yl]oxy}-4-[2-(2-methyl-1,3-dioxolan-2-yl)ethoxy]phenyl}-N-(pentylsulfonyl)acrylamide] are 90 to 92 °C and 7.3 nM.
